# Values of other authors in patent US9433553B2, “Device and method for prevention and treatment of deep venous thrombosis” (Fred Herz Patents LLC, priority 2001, dated 2016).
# Read-outs that look alike come from different tables or passages of the source.
# Columns and labels:
# thrombin = thrombin (Homo sapiens, UniProt P00734); conditions: synthetic peptides of the thrombin receptor
# [1] = tested on: patients undergoing knee arthroplasty
# [2] = tested on: patients undergoing elective total hip replacement
# [3] = tested on: patients having surgery after hip fracture; conditions: aspirin treated group; placebo 46%
# [4] = tested on: experimental thrombus in the rabbit jugular vein
# [5] = tested on: stasis induced thrombosis; conditions: rabbit; 100% without
# [6] = tested on: patients undergoing radical prostatectomy
# [7] = tested on: patients who underwent elective general surgery
# [8] = tested on: patients with spinal cord injury; conditions: Green (1991)
# [9] = tested on: patients with deep vein thrombosis; conditions: for patients who developed pulmonary embolism: APTT 50-70 seconds, acute deep vein thrombosis
# [10] = total hip replacement, no placebo group
# [11] = subcutaneous, adjusted to APTT 1.5-2 times pretreatment, 66 patients
# [12] = 349 patients undergoing total hip replacement, dose adjusted
# [13] = 665 patients, fixed doses, elective total hip replacement
# [14] = 4,498 general surgery patients randomized to LMWH or placebo
molecule,measurement,setting,value
"38-45: synthetic peptide corresponding to the thrombin receptor cleavage site (residues 38-45) (LDPRSFLL; UniProt P25116 38-45, looked up, fragment) [Peptide 38-45]",inhibition of the chromogenic substrate activity of thrombin,thrombin,competitive inhibitors
"38-64: synthetic peptide corresponding to the covalently associated domains (residues 38-64) of the thrombin receptor (LDPRSFLLRNPNDKYEPFWEDEEKNES; UniProt P25116 38-64, looked up, fragment) [Peptide 38-64]",inhibition of the chromogenic substrate activity of thrombin,thrombin,competitive inhibitors
CC(=O)CC(c1ccccc1)c1c(O)c2ccccc2oc1=O (stereo not shown) [Warfarin],incidence of thigh vein thrombi,"[1]; knee arthroplasty / total knee replacement, 48 patients",6%
same,overall incidence of DVT,"[1]; knee arthroplasty / total knee replacement, 48 patients, no placebo group",33%
same,patients having calf thrombi,"[1]; total knee replacement, 48 patients",29%
same,incidence of DVT,"[2]; Bailey et al (1991), hip replacement patients, low dose warfarin",26.6%
same,incidence of proximal vein thrombosis,[2]; [10],3%
same,total incidence of DVT,[2]; [10],31%
CC(=O)Oc1ccccc1C(=O)O [aspirin],incidence of DVT,[3],42%
Ac(D)-Phe-Pro-bro-Arg [DuP 714],fibrin accretion on an experimental thrombus,[4]; rabbit jugular vein,effectively inhibited
same,systemic anticoagulation,[4]; rabbit jugular vein model,little systemic anticoagulation
same,incidence of thrombosis,[5],33%
enoxaparin,proximal vein thrombi,"[2]; Turpie (1991), fixed dose, elective total hip replacement, placebo 20%",4%
same,rate of DVT,"[2]; Turpie (1991), fixed dose, elective total hip replacement, placebo 42%",12%
heparin,bleeding complications,[6]; mini-dose heparin treated group,unacceptably high
same,incidence of pulmonary emboli,"[6]; mini-dose heparin, 11% without",none
same,effectiveness of low dose heparin,intracerebral hemorrhage,ineffective
same,reduction of postoperative death from pulmonary emboli,[7]; low dose heparin,65%
same,subclinical thrombi prevented,"[7]; low dose heparin, thrombi found by leg scanning after elective general surgery",approximately 65%
same,patients with bleeding,[8]; adjusted (higher) dose,24%
same,thromboembolism,"[8]; dose adjusted to APTT 1.5 times control, mean 13,200 U every 12 hours",7%
same,patients with bleeding,[8]; fixed dose group,none
same,thromboembolism,"[8]; fixed dose of 5000 U subcutaneously every 12 hours, 29 patients",31%
same,patients with recurrent venous thromboembolism diagnosed objectively,"[9]; Prandoni et al (1992), similar study, 85 patients",14%
same,patients with improved mean Marder score,"[9]; adjusted dose intravenous, 49 patients",61%
same,major bleeding associated with initial therapy,"[9]; adjusted dose intravenous, continuous infusion",5%
same,incidence of new episodes of venous thromboembolism,"[9]; adjusted dose intravenous, continuous infusion, initial treatment of proximal vein thrombosis",6.9%
same,patients who developed pulmonary embolism,"[9]; adjusted subcutaneous, 47 patients",10.6%
same,patients who developed pulmonary embolism,"[9]; continuous intravenous, 49 patients",10.2%
same,rate of hemorrhagic complications,"[9]; subcutaneous and intravenous groups, no difference",9.8%
same,patients with improvement,[9]; [11],48%
same,patients with increase in thrombus size,[9]; [11],18%
same,"protection against postoperative DVT, adjusted versus fixed low dose","[2]; 100 patients, hip replacement or fractured neck of femur, p=0.017",Significant improvement
same,incidence of DVT,[2]; [12],16%
same,incidence of DVT,[2]; [13],23.2%
same,rate of proximal vein thrombi,[2]; [13],6.5%
same,"bleeding, adjusted versus fixed dose",[2]; Leyvraz et al (1983),No differences
same,patients who developed DVT,"[2]; Leyvraz et al (1983), 38 patients, adjusted dose (APTT 31.5-36 seconds)",13%
same,patients who developed DVT,"[2]; Leyvraz et al (1983), 41 patients, fixed dose of 3500 U every eight hours",39%
same,incidence of DVT left by low dose heparin treatment,[2]; total hip and total knee replacement patients,around 25%
low molecular weight heparin [LMWH],major bleeding compared to placebo,"[7]; 4,498 general surgery patients",No difference
same,postoperative wound hematomas and transfusion requirements compared to placebo,"[7]; 4,498 general surgery patients",increase in postoperative wound hematomas and transfusion requirements
same,overall mortality,[7]; [14],0.36%
same,thromboembolic mortality,[7]; [14],0.09%
same,incidence of DVT,"[7]; Ockelford et al (1989), 183 patients, LMWH or placebo",4.2%
same,efficacy compared with standard heparin,[7]; seven studies in general surgery patients,same efficacy
same,reduction of incidence of proximal vein thrombi,[1]; knee arthroplasty or tibial osteotomy,100%
same,reduction of incidence of DVT,"[1]; knee arthroplasty or tibial osteotomy, every 12 hours",71%
same,incidence of DVT,"[1]; knee arthroplasty or tibial osteotomy, every 12 hours, placebo 65%",19%
same,incidence of proximal vein thrombi,"[1]; knee arthroplasty or tibial osteotomy, placebo 19%",none
same,incidence of DVT,[2]; [12],12.6%
same,incidence of DVT,[2]; [13],19.4%
same,rate of proximal vein thrombi,[2]; [13],5.4%
same,reduction of incidence of DVT,"[2]; elective total hip replacement, 56.6% to 15.5%",74%
same,incidence of DVT,"[2]; elective total hip replacement, without LMWH 56.6%",15.5%
